Source: patent US4806556A, “Gut-selective opiates” (Regents of the University of Minnesota, priority 1987, dated 1989)

Columns and labels:
[1] = tested on: electrically-stimulated guinea pig ileum (GPI) preparations; assay: Antagonist activity: displacement of the morphine concentration-response curve on guinea pig ileum preparation; conditions: for Antagonism (Morphine IC50 Ratio): factor by which the morphine concentration-response curve is shifted to higher concentration: IC50 of morphine with antagonist / control IC50, 3 determinations
[2] = tested on: electrically-stimulated guinea pig ileum (GPI) preparations; assay: Agonist activity: inhibition of contraction of electrically-stimulated guinea pig ileum (GPI) preparation, compared to morphine; parameters: Emax: dose or concentration left out as unconfirmed; conditions: for Agonism (Morphine = 1): potency factor for the inhibition of contraction relative to that of morphine: electrically stimulated guinea pig ileum, 3 determinations; for Emax: Cavia porcellus, read-out: Agonism: partial agonist, maximal response relative to that of morphine; for Agonist activity on GPI (in words): compared to morphine

| SMILES | Morphine antagonist activity on GPI (in words) [1] | Antagonism (Morphine IC50 Ratio): factor by which the morphine concentration-response curve is shifted to higher concentration ([1]; ligand concentration 200 nM) | Agonism (Morphine = 1): potency factor for the inhibition of contraction relative to that of morphine [2] | Emax [2] [%] | Agonist activity on GPI (in words) [2] | Antagonism (Morphine IC50 Ratio): factor by which the morphine concentration-response curve is shifted to higher concentration ([1]; ligand concentration = 20 nM) |
| --- | --- | --- | --- | --- | --- | --- |
| NC(CC(=O)O)C(=O)NC1CCC2(O)C3Cc4ccc(O)c5c4C2(CCN3CC2CC2)C1O5 (stereo not drawn) [Compound 6] | possible exception to this generality | 1 | 14.2 | – | – | – |
| O=C(O)COCC(=O)NC1CC[C@@]2(O)[C@H]3Cc4ccc(O)c5c4[C@@]2(CCN3CC2CC2)[C@H]1O5 (stereo partly drawn) [Compound 4] | – | 34.8 | – | 30 to 60 | submaximal responses relative to morphine | – |
| N=C(N)NN=C1CC[C@@]2(O)[C@H]3Cc4ccc(O)c5c4[C@@]2(CCN3CC2CC2)[C@H]1O5 [Compound 16, Naltrexazone iminosemicarbazone] | – | – | 29 | – | – | – |
| CN1CC[C@]23c4c5ccc(O)c4O[C@H]2C(NC(=O)/C=C\C(=O)O)CC[C@@]3(O)[C@H]1C5 (stereo partly drawn) [Compound 10] | – | 1 | 2.7 | – | – | – |
| O=C(O)/C=C/C(=O)NC1CC[C@@]2(O)[C@H]3Cc4ccc(O)c5c4[C@@]2(CCN3CC2CC2)[C@H]1O5 (stereo partly drawn) [Compound 3] | – | – | 3 | – | – | 3.7 |
| CN1CC[C@]23c4c5ccc(O)c4O[C@H]2C(NC(=O)COCC(=O)O)CC[C@@]3(O)[C@H]1C5 (stereo partly drawn) [Compound 11] | – | 1 | 3.1 | – | – | – |
| O=C(O)CN[C@@H]1CC[C@@]2(O)[C@H]3Cc4ccc(O)c5c4[C@@]2(CCN3CC2CC2)[C@H]1O5 [Compound 7, β-Naltrexamineacetic acid] | – | – | – | 30 to 60 | submaximal responses relative to morphine | 2.4 |
| O=C(O)CCC(=O)NC1CC[C@@]2(O)[C@H]3Cc4ccc(O)c5c4[C@@]2(CCN3CC2CC2)[C@H]1O5 (stereo partly drawn) [Compound 1] | – | 11.0 | – | 30 to 60 | submaximal responses relative to morphine | – |
| N=C(N)NCCCC(N)C(=O)N[C@@H]1CC[C@@]2(O)[C@H]3Cc4ccc(O)c5c4[C@@]2(CCN3CC2CC2)[C@H]1O5 (stereo partly drawn) [Compound 5, Arginyl-β-naltrexamine] | – | 4.0 | – | 30 to 60 | submaximal responses relative to morphine | – |
| CN1CC[C@]23c4c5ccc(O)c4O[C@H]2C(NC(=O)C(N)CC(=O)O)CC[C@@]3(O)[C@H]1C5 (stereo partly drawn) [Compound 12] | – | 1 | 6.1 | – | – | – |
| CN1CC[C@]23c4c5ccc(O)c4O[C@H]2C(NC(=O)/C=C/C(=O)O)CC[C@@]3(O)[C@H]1C5 (stereo partly drawn) [Compound 9] | – | 1 | 1.5 | – | – | – |
| CN1CC[C@]23c4c5ccc(O)c4O[C@H]2C(NC(=O)CCC(=O)O)CC[C@@]3(O)[C@H]1C5 (stereo partly drawn) [Compound 8] | – | 1 | 1.6 | – | – | – |
| O=C(O)CNN=C1CC[C@@]2(O)[C@H]3Cc4ccc(O)c5c4[C@@]2(CCN3CC2CC2)[C@H]1O5 [Compound 15, Naltrexazoneacetic acid] | – | 100 | – | 30 to 60 | – | – |
